The subject of assay [1] is full-length Gaussia princeps luciferase. In words: Activity of full-length Gaussia luciferase alone in H4 cells. To be noted: 10 μM, FIG. 14. The format is cell-based. As to the method: For controls in this assay, vehicle (i.e., DMSO), rapamycin, and bafilomycin A were used. Rapamycin, or sirolimus, is a small molecule that activates autophagy by inhibiting mTOR (mammalian target of rapamycin). […] To test this possibility, cells expressing α-synuclein were treated with each of the compounds and a cell permeable, resazurin-based assay was used to test for cell viability.
H4 neuroglioma cells (ATCC, HTB-148) were maintained in Dulbecco's Modified Eagle Medium plus high glucose, L-glutamine, and sodium pyruvate (ThermoFisher, 11995-065) with 10% heat-inactivated fetal bovine serum (ThermoFisher, 16140071) and 1% antibiotic-antimycotic cocktail (ThermoFisher, 15240062) at 37° C. and 5% CO2. DNA expression constructs encoding for full-length human α-synuclein fused to the N-terminal fragment of Gaussia princeps luciferase (syn-luc1), full-length human α-synuclein fused to the C-terminal fragment of Gaussia princeps luciferase (syn-luc2), and full-length Gaussia princeps luciferase were kindly provided by Dr. Pamela McLean, Mayo Clinic Jacksonville.^33 Cells were transiently co-transfected with syn-luc1 and syn-luc2 or transfected with luciferase alone using Superfect transfection reagent (Qiagen, 301305) according to the manufacturer's instructions. Twenty-four hours after transfection, cells were plated on a 96-well microplate at 60,000 cells per well. Twenty-four hours after plating, cells were treated with drugs or vehicle control. Following 24 hours of treatment, cells were washed 1 time with PBS and bioluminescence was measured using an automated CLARIOstar plate reader (Mandel, 430-0505). Cell permeable, native coelenterazine was used as the Gaussia luciferase substrate. Lyophilized coelenterazine (Nanolight, 303-500) was reconstituted in NanoFuel Solvent (Nanolight, 399-1), then diluted in PBS to 16.6 μg/mL, and dispensed per well to a final concentration of 20 μM). The bioluminescent signal generated by the luciferase enzyme was assessed at 470 nm over 5 seconds. Raw luminescence units were normalized to the DMSO vehicle control of each 96-well microplate. To assess cell viability, H4 neuroglioma cells were prepared and treated as described above and, 1 hour prior to viability analysis, cells were treated with PrestoBlue viability reagent (ThermoFisher, A13261) according to the manufacturer's instructions. Fluorescence was automatically measured using a CLARIOstar plate reader (Mandel, 430-0505) and then normalized to the fluorescence measure of the DMSO vehicle control.

Another assay concerns HSP70. In words: HSP70 immunofluorescence in V1S-SV2 primary cortical rat neurons. In kind it is cell-based. The note with it: 10 μM. As to the method:
To investigate the mechanism underlying these drug effects, experiments were directed towards the potential involvement of molecular chaperone HSP70. HSP70 is known to play an essential role in suppressing α-synuclein aggregation, and in particular the inhibition of α-synuclein oligomer formation (Tao et al., 2020). To investigate the in silico predictions of HSP70 interactions with top drug candidates from the Cyclica proteome screening, fluorescence intensity was measured in V1 S-SV2 primary cortical rat neurons (FIGS. 15A and E) for potential effects on α-synuclein oligomers.
Pregnant Sprague Dawley rats (E17) were purchased from Charles River. […] Cells were washed three more times before being counter-stained with DAPI for 5 mins and mounted using ProLong Gold mounting medium for fluorescence (ThermoFisher). […] Fluorescence intensity was analysed automatically using Imaris imaging software (Oxford Instruments) by measuring the mean fluorescence intensity of each individual fluorescent neuron using the “surfaces” module. This module detects fluorescence above background threshold in each field of view, identifies a cell body and neuronal projections of each cell, and calculates the mean fluorescence intensity of each fluorescent cell within the field of view. […] The value generated for each neuron was normalized to the mean of fluorescence intensity of neurons treated with vehicle alone. […]

Take `Nc1nc(NC2CC2)c2ncn([C@H]3C=C[C@@H](CO)C3)c2n1` [Abacavir, abacavir]: the “changes in the activity of full-length Gaussia luciferase alone” value in assay [1] is reported as “No statistically significant changes”. The “HSP70 fluorescence compared to vehicle control” value in the assay with HSP70 is on record as “significantly increased”.

The values are drawn from patent US20250134895A1, “METHODS AND COMPOSITIONS FOR TREATING ALPHA-SYNUCLEIN-MEDIATED NEURODEGENERATION” (UNIVERSITY HEALTH NETWORK, priority 2021, published 2025).
